Results: PubChem BioAssay (NCI)
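Tested at 5 concentrations; 48 h exposure; 96-well plates; endpoints linearly interpolated, else capped at highest concentration. GI50 is the concentration that inhibits growth by half. The concentration for full growth arrest is given as TGI.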

Assays:
Experiment in all cases: DTP human tumour cell line panel, 48 h
NCI-H23 lung = tested on: NCI-H23 lung
NCI-H522 lung = tested on: NCI-H522 lung
K-562 leukemia = tested on: K-562 leukemia
NCI/ADR-RES ovarian = tested on: NCI/ADR-RES ovarian
SK-OV-3 ovarian = tested on: SK-OV-3 ovarian
HOP-62 NSCLC = tested on: HOP-62 NSCLC
SF-539 CNS = tested on: SF-539 CNS
RXF 393 renal = tested on: RXF 393 renal
COLO 205 colon = tested on: COLO 205 colon
MCF7 breast = tested on: MCF7 breast
MALME-3M melanoma = tested on: MALME-3M melanoma
PC-3 prostate = tested on: PC-3 prostate
EKVX NSCLC = tested on: EKVX NSCLC
HCT-116 colon = tested on: HCT-116 colon
SW-620 colon = tested on: SW-620 colon
UACC-62 melanoma = tested on: UACC-62 melanoma
SR leukemia = tested on: SR leukemia
OVCAR-4 ovarian = tested on: OVCAR-4 ovarian
UO-31 renal = tested on: UO-31 renal
LOX IMVI melanoma = tested on: LOX IMVI melanoma
HS 578T breast = tested on: HS 578T breast
MDA-MB-231 breast = tested on: MDA-MB-231 breast
SK-MEL-28 melanoma = tested on: SK-MEL-28 melanoma
TK-10 renal = tested on: TK-10 renal
ACHN renal = tested on: ACHN renal
SNB-19 CNS = tested on: SNB-19 CNS
T-47D breast = tested on: T-47D breast
M14 melanoma = tested on: M14 melanoma
NCI-H226 lung = tested on: NCI-H226 lung
OVCAR-8 ovarian = tested on: OVCAR-8 ovarian
MOLT-4 leukemia = tested on: MOLT-4 leukemia
HCT-15 colon = tested on: HCT-15 colon
UACC-257 melanoma = tested on: UACC-257 melanoma
MDA-MB-435 = tested on: MDA-MB-435
SNB-75 CNS = tested on: SNB-75 CNS
SF-295 CNS = tested on: SF-295 CNS
A498 renal = tested on: A498 renal
NCI-H460 lung = tested on: NCI-H460 lung
BT-549 breast = tested on: BT-549 breast
HT29 colon = tested on: HT29 colon
786-0 renal = tested on: 786-0 renal
HL-60(TB) leukemia = tested on: HL-60(TB) leukemia
SK-MEL-2 melanoma = tested on: SK-MEL-2 melanoma
KM12 colon = tested on: KM12 colon
A549 NSCLC = tested on: A549 NSCLC
HCC-2998 colon = tested on: HCC-2998 colon
CCRF-CEM leukemia = tested on: CCRF-CEM leukemia
DU-145 prostate = tested on: DU-145 prostate
SF-268 CNS = tested on: SF-268 CNS
U251 CNS = tested on: U251 CNS
IGROV1 ovarian = tested on: IGROV1 ovarian
SK-MEL-5 melanoma = tested on: SK-MEL-5 melanoma
OVCAR-5 ovarian = tested on: OVCAR-5 ovarian
HOP-92 NSCLC = tested on: HOP-92 NSCLC
SN12C renal = tested on: SN12C renal
OVCAR-3 ovarian = tested on: OVCAR-3 ovarian
CAKI-1 renal = tested on: CAKI-1 renal

CC(=O)[C@@]1(O)[C@H](C)C[C@H]2[C@@H]3C=C(C)C4=Cc5c(cnn5-c5ccccc5)C[C@]4(C)[C@H]3[C@@H](O)C[C@@]21C
GI50 (NCI-H23 lung): 2.48 µM | TGI (NCI-H23 lung): 9.96 µM | GI50 (NCI-H522 lung): 2.83 µM | TGI (NCI-H522 lung): 8.85 µM | GI50 (K-562 leukemia): 0.659 µM | GI50 (NCI/ADR-RES ovarian): 1.91 µM | TGI (NCI/ADR-RES ovarian): 9.75 µM | GI50 (SK-OV-3 ovarian): 0.76 µM | TGI (SK-OV-3 ovarian): 10.5 µM | GI50 (HOP-62 NSCLC): 3.58 µM | TGI (HOP-62 NSCLC): 9.75 µM | GI50 (SF-539 CNS): 1.22 µM | TGI (SF-539 CNS): 2.85 µM | GI50 (RXF 393 renal): 1.31 µM | TGI (RXF 393 renal): 6.42 µM | GI50 (COLO 205 colon): 1.86 µM | TGI (COLO 205 colon): 3.93 µM | GI50 (MCF7 breast): 1.97 µM | TGI (MCF7 breast): 11 µM | GI50 (MALME-3M melanoma): 1.76 µM | TGI (MALME-3M melanoma): 5.36 µM | GI50 (PC-3 prostate): 2.06 µM | TGI (PC-3 prostate): 10.1 µM | GI50 (EKVX NSCLC): 1.25 µM | TGI (EKVX NSCLC): 11.4 µM | GI50 (HCT-116 colon): 2.46 µM | TGI (HCT-116 colon): 11.4 µM | GI50 (SW-620 colon): 1.91 µM | TGI (SW-620 colon): 4.27 µM | GI50 (UACC-62 melanoma): 2.24 µM | TGI (UACC-62 melanoma): 5.76 µM | GI50 (SR leukemia): 1.77 µM | GI50 (OVCAR-4 ovarian): 3.85 µM | TGI (OVCAR-4 ovarian): 31.1 µM | GI50 (UO-31 renal): 2.08 µM | TGI (UO-31 renal): 7.03 µM | GI50 (LOX IMVI melanoma): 1.69 µM | TGI (LOX IMVI melanoma): 4.6 µM | GI50 (HS 578T breast): 2.97 µM | TGI (HS 578T breast): 12.9 µM | GI50 (MDA-MB-231 breast): 2.04 µM | TGI (MDA-MB-231 breast): 5.4 µM | GI50 (SK-MEL-28 melanoma): 3.22 µM | TGI (SK-MEL-28 melanoma): 13 µM | GI50 (TK-10 renal): 1.97 µM | TGI (TK-10 renal): 6.08 µM | GI50 (ACHN renal): 2.75 µM | TGI (ACHN renal): 11.3 µM | GI50 (SNB-19 CNS): 3.29 µM | TGI (SNB-19 CNS): 14.2 µM | GI50 (T-47D breast): 2.3 µM | TGI (T-47D breast): 10.3 µM | GI50 (M14 melanoma): 2.84 µM | TGI (M14 melanoma): 13.6 µM | GI50 (NCI-H226 lung): 2.5 µM | TGI (NCI-H226 lung): 15.7 µM | GI50 (OVCAR-8 ovarian): 2.8 µM | TGI (OVCAR-8 ovarian): 13.8 µM | GI50 (MOLT-4 leukemia): 0.842 µM | TGI (MOLT-4 leukemia): 8.7 µM | GI50 (HCT-15 colon): 0.81 µM | TGI (HCT-15 colon): 2.66 µM | GI50 (UACC-257 melanoma): 4.06 µM | TGI (UACC-257 melanoma): 13.4 µM | GI50 (MDA-MB-435): 2.44 µM | TGI (MDA-MB-435): 8.7 µM | GI50 (SNB-75 CNS): 2.65 µM | TGI (SNB-75 CNS): 11 µM | GI50 (SF-295 CNS): 1.73 µM | TGI (SF-295 CNS): 3.53 µM | GI50 (A498 renal): 3.45 µM | TGI (A498 renal): 14.7 µM | GI50 (NCI-H460 lung): 1.4 µM | TGI (NCI-H460 lung): 3.69 µM | GI50 (BT-549 breast): 1.29 µM | TGI (BT-549 breast): 5.17 µM | GI50 (HT29 colon): 0.946 µM | TGI (HT29 colon): 4.38 µM | GI50 (786-0 renal): 2.23 µM | TGI (786-0 renal): 5.2 µM | GI50 (HL-60(TB) leukemia): 3.62 µM | TGI (HL-60(TB) leukemia): 41.9 µM | GI50 (SK-MEL-2 melanoma): 2.45 µM | TGI (SK-MEL-2 melanoma): 5.88 µM | GI50 (KM12 colon): 1.69 µM | TGI (KM12 colon): 4.5 µM | GI50 (A549 NSCLC): 1.82 µM | TGI (A549 NSCLC): 13.9 µM | GI50 (HCC-2998 colon): 2.13 µM | TGI (HCC-2998 colon): 5.73 µM | TGI (CCRF-CEM leukemia): 1.72 µM | GI50 (DU-145 prostate): 3.24 µM | TGI (DU-145 prostate): 14 µM | GI50 (SF-268 CNS): 2.81 µM | TGI (SF-268 CNS): 16.6 µM | GI50 (U251 CNS): 1.51 µM | TGI (U251 CNS): 6.23 µM | GI50 (IGROV1 ovarian): 2.64 µM | TGI (IGROV1 ovarian): 11 µM | GI50 (SK-MEL-5 melanoma): 1.61 µM | TGI (SK-MEL-5 melanoma): 4.21 µM | GI50 (OVCAR-5 ovarian): 1.52 µM | TGI (OVCAR-5 ovarian): 5.76 µM | GI50 (HOP-92 NSCLC): 2.42 µM | TGI (HOP-92 NSCLC): 14 µM | GI50 (SN12C renal): 1.4 µM | TGI (SN12C renal): 12.4 µM | GI50 (OVCAR-3 ovarian): 2.08 µM | TGI (OVCAR-3 ovarian): 4.84 µM | GI50 (CAKI-1 renal): 2.46 µM | TGI (CAKI-1 renal): 6.44 µM
